From ChEMBL document CHEMBL5331104, “Discovery of BRD4-HDAC Dual Inhibitors with Improved Fungal Selectivity and Potent Synergistic Antifungal Activity against Fluconazole-Resistant Candida albicans” (J Med Chem, 2023)
In brackets after ≈: the same amount, converted by molar mass. Activity calls are given as the source filed them. No cut-off for these calls is given here.

Columns and labels:
Candida albicans [1] = assay: Synergetic antifungal activity against Candida albicans 0304103 assessed as microbial growth inhibition incubated for 24 hrs in the presence of (S)-N-Hydroxy-4-((2(1-methyl-6-phenyl-4H-benzor[f](1,2,4)-triazolo-[4,3-a][1,4]diazepin 4-yl)acetamido)methyl)benzamide by checkerboard microdilution method; type: functional
Candida albicans [2] = assay: Synergetic antifungal activity against Candida albicans 0304103 assessed as microbial growth inhibition incubated for 24 hrs in the presence of (S, E)-N-Hydroxy-3-(4-(2-(1-methyl-6-(p-tolyl)-4H-benzo(f)-(1,2,4)triazolo(4,3-a)[1,4]diazepin-4-y)acetamido)phenyl)-acrylamide by checkerboard microdilution method; type: functional
Cryptococcus neoformans [3] = assay: Antifungal activity against Cryptococcus neoformans H99 assessed as fungal growth inhibition incubated for 24 hrs by broth dilution method; type: functional
Candida albicans [4] = assay: microbe, parasite or virus in culture; type: functional; conditions: 0304103
Description: Antifungal activity against Candida albicans 0304103 assessed as microbial growth inhibition

Candida albicans [5] = assay: Synergetic antifungal activity against Candida albicans 0304103 assessed as microbial growth inhibition incubated for 24 hrs in the presence of (S)-N-Hydroxy-4-(2-(1-methyl-6-phenyl-4H-benzo[f](1,2,4)-triazolo-[4,3-a],[1,4]diazepin-4-yl)acetamido)benzamide by checkerboard microdilution method; type: functional
Candida albicans [6] = assay: Synergetic antifungal activity against Candida albicans 0304103 assessed as microbial growth inhibition incubated for 24 hrs in the presence of (S)-N-Hydroxy-2-(4-(2-(l-methyl-6-phenyl-4H-benzo[f](1,2,4)-triazolo-[4,3-a][1,4]diazepin 4-yl)acetamido)phenyl)acetamide by checkerboard microdilution method; type: functional
Candida albicans [7] = assay: Synergetic antifungal activity against Candida albicans 0304103 assessed as microbial growth inhibition incubated for 24 hrs in the presence of (S,E)-N-Hydroxy-3-(4-(2-(l-methyl-6-phenyl-4H-benzo[f][1,2,4]-triazolo[4,3-a][1,4]diazepin-4-y1)acetamido)phenyl)acrylamide by checkerboard microdilution method; type: functional
Candida albicans [8] = assay: Synergetic antifungal activity against Candida albicans 0304103 assessed as microbial growth inhibition incubated for 24 hrs in the presence of (S)-N-Hydroxy-4-(2-(1-methyl-6-(p-toly1)-4H-benzo[f](1,2,4)-triazolo-(4,3-a][1,4]diazepin-4-yl)acetamido)benzamide by checkerboard microdilution method; type: functional
Candida albicans [9] = assay: Synergetic antifungal activity against Candida albicans 0304103 assessed as microbial growth inhibition incubated for 24 hrs in the presence of (S)-N-Hydroxy-4-((2-(1-methyl-6-(p-toly1)-4H-benzo[f](1,2,4)-triazolo-(4,3-a][1,4]diazepin-4-y1)acetamido)methyl)benzamide by checkerboard microdilution method; type: functional
Candida albicans [10] = assay: Synergetic antifungal activity against Candida albicans 0304103 assessed as microbial growth inhibition incubated for 24 hrs in the presence of (S)-N-Hydroxy-2-(4-(2-(1-methyl-6-(p-toly1)-4H-benzo[f](1,2,4)-triazolo[4,3-a][1,4]diazepin-4-yl)acetamido)phenyl)acetamideby checkerboard microdilution method; type: functional
Candida albicans [11] = assay: Synergetic antifungal activity against Candida albicans 0304103 assessed as microbial growth inhibition incubated for 24 hrs in the presence of (S)-4-(2-(6-(4-Chlorophenyl)-1-methyl-4H-benzo[f](1,2,4)-triazolo(4,3-a)(1,4)diazepin-4-yl)acetamido)-N-hydroxybenzamide by checkerboard microdilution method; type: functional
Candida albicans [12] = assay: Synergetic antifungal activity against Candida albicans 0304103 assessed as microbial growth inhibition incubated for 24 hrs in the presence of (S)-2-(6-(4-Chlorophenyl)-1-methyl-4H-benzo[f][1,2,4]triazolo-14,3-a)(1,4)diazepin-4-yl)-N-(4-(2-(hydroxyamino)-2-oxoethyl)-phenyl)acetamide by checkerboard microdilution method; type: functional
Candida albicans [13] = assay: Synergetic antifungal activity against Candida albicans 0304103 assessed as microbial growth inhibition incubated for 24 hrs in the presence of (S,E)-3-(4-(2-(6-(4-Chlorophenyl)-1-methy1-4H-benzo[f][1,2,4]-triazolo(4,3-a)[1,4]diazepin-4-yl)acetamido)phenyl)-N-hydroxyacrylamide by checkerboard microdilution method; type: functional
Candida albicans [14] = assay: Synergetic antifungal activity against Candida albicans 0304103 assessed as microbial growth inhibition incubated for 24 hrs in the presence of (S)-4-((2-(8-Chloro-6-(2-chloropheny1)-1-methyl-4H-benzo[f]-[1,2,4]-triazolo(4,3-a)(1,4]diazepin-4-yl)acetamido)methyl)-N-hydroxy-benzamide by checkerboard microdilution method; type: functional
Candida albicans [15] = assay: Synergetic antifungal activity against Candida albicans 0304103 assessed as microbial growth inhibition incubated for 24 hrs in the presence of (S)-2-(8-Chloro-6-(2-chlorophenyl)-1-methyl-4H-benzo[f][1,2,4]-triazolo(4,3-a][1,4]diazepin-4-y1)-N-(4-(2-(hydroxyamino)-2-oxoethyl)-phenyl)acetamide by checkerboard microdilution method; type: functional
Candida albicans [16] = assay: Synergetic antifungal activity against Candida albicans 0304103 assessed as microbial growth inhibition incubated for 24 hrs in the presence of (S,E)-3-(4-(2-(8-Chloro-6-(2-chlorophenyl)-1-methyl-4H-benzo-[f][1,2,4]triazolo[4,3-a](1,4)diazepin-4-yl)acetamido)pheny1)-N-hydroxy-acrylamide by checkerboard microdilution method; type: functional
Candida albicans [17] = assay: Synergetic antifungal activity against Candida albicans 0304103 assessed as microbial growth inhibition incubated for 24 hrs in the presence of (S)-4-(2-(6-(4-Chlorophenyl)-1-methyl-7,8,9,10-tetrahydro-4Hbenzo-[4,5]thieno(3,2-f)(1,2,4)triazolo(4,3-a)[1,4]diazepin-4-yl)-acetamido)-N-hydroxybenzamide by checkerboard microdilution method; type: functional
Candida albicans [18] = assay: (§1) Synergetic antifungal activity against Candida albicans 0304103 assessed as microbial growth inhibition incubated for 24 hrs in the presence of (S)-4-((2-(6-(4-Chlorophenyl)-1-methyl-7,8,9,10-tetrahydro-4H-benzo-(4,5)thieno[3,2-f][1,2,4]triazolo(4,3-a)(1,4)diazepin-4-yl)-acetamido)-methyl)-N-hydroxybenzamide by checkerboard microdilution method; type: functional
Candida albicans [19] = assay: Synergetic antifungal activity against Candida albicans 0304103 assessed as microbial growth inhibition incubated for 24 hrs in the presence of (S)-2-(6-(4-Chlorophenyl)-1-methyl-7,8,9,10-tetrahydro-4H-benzo-(4,5)thieno[3,2-f][1,2,4]triazolo(4,3-a)(1,4)diazepin-4-yl)-N-(4-(2-(hydroxyamino)-2-oxoethyl)phenyl)acetamide by checkerboard microdilution method; type: functional
Candida albicans [20] = assay: Synergetic antifungal activity against Candida albicans 0304103 assessed as microbial growth inhibition incubated for 24 hrs in the presence of (S,E)-3-(4-(2-(6-(4-Chlorophenyl)-1-methyl-7,8,9,10-tetrahydro-4H-benzo-(4,5]thieno(3,2-f)(1,2,4)triazolo(4,3-a)(1,4]diazepin-4-yl)acetamido)pheny1)N-hydroxyacrylamide by checkerboard microdilution method; type: functional
Candida albicans [21] = assay: Synergetic antifungal activity against Candida albicans 0304103 assessed as microbial growth inhibition incubated for 24 hrs in the presence of (+)-JQ1 by checkerboard microdilution method; type: functional
[Candida] auris [22] = Antifungal activity against Candida auris 0030 assessed as microbial growth inhibition; type: functional; conditions: Candidozyma auris
Candida albicans [23] = assay: Antifungal activity against Candida albicans 9172 assessed as microbial growth inhibition; type: functional
Candida albicans [24] = assay: Antifungal activity against Candida albicans 9884 assessed as microbial growth inhibition; type: functional
Cryptococcus neoformans [25] = assay: Antifungal activity against Cryptococcus neoformans 011405 assessed as microbial growth inhibition; type: functional
[Candida] auris [26] = as §1, with “auris 0029” for “albicans 0304103”; type: functional; conditions: Candidozyma auris
[Candida] auris [27] = as §1, with “auris 0030” for “albicans 0304103”; type: functional; conditions: Candidozyma auris
Candida albicans [28] = assay: as §1, with “9884” for “0304103”; type: functional
Candida albicans [29] = assay: Antibiofilm activity against FLC-resistant Candida albicans 0304103 assessed as reduction in fungal growth at 32 ug/mL and measured for 48 hrs by time-growth curve assay; type: functional, organism-based; conditions: dose 32.0 µg/ml
Candida albicans [30] = assay: Antifungal activity against Candida albicans 0304103 assessed as reduction in yeast to hypha transition at 32 ug/mL incubated for 2 hrs by inverse fluorescence microscopy; type: functional, organism-based; conditions: dose 32.0 µg/ml
Candida albicans [31] = assay: Downregulation of ERG11 expression in Candida albicans 0304103 at 32 ug/mL incubated for 24 hrs by RT q-PCR analysis; type: functional; conditions: dose 32.0 µg/ml
Candida albicans [32] = assay: Downregulation of CDR1 expression in Candida albicans 0304103 at 32 ug/mL incubated for 24 hrs by RT q-PCR analysis; type: functional; conditions: dose 32.0 µg/ml
Candida albicans [33] = assay: Downregulation of CDR2 expression in Candida albicans 0304103 at 32 ug/mL incubated for 24 hrs by RT q-PCR analysis; type: functional; conditions: dose 32.0 µg/ml
Candida albicans [34] = assay: Downregulation of MDR1 expression in Candida albicans 0304103 at 32 ug/mL incubated for 24 hrs by RT q-PCR analysis; type: functional; conditions: dose 32.0 µg/ml
Candida albicans [35] = assay: Downregulation of GCA1 expression in Candida albicans 0304103 at 32 ug/mL incubated for 24 hrs by RT q-PCR analysis; type: functional; conditions: dose 32.0 µg/ml

OC(Cn1cncn1)(Cn1cncn1)c1ccc(F)cc1F [FLUCONAZOLE]
MIC80 (Candida albicans [1]): 1 µg/mL | MIC80 (Candida albicans [2]): 2 µg/mL | MIC80 (Cryptococcus neoformans [3]): 1 µg/mL (≈ 3.27 µM) | MIC80 (Candida albicans [4]): > 64 µg/mL | MIC80 (Candida albicans [5]): 2 µg/mL | MIC80 (Candida albicans [6]): 4 µg/mL | MIC80 (Candida albicans [7]): 2 µg/mL | MIC80 (Candida albicans [8]): 1 µg/mL | MIC80 (Candida albicans [9]): 1 µg/mL | MIC80 (Candida albicans [10]): 1 µg/mL | MIC80 (Candida albicans [11]): 4 µg/mL | MIC80 (Candida albicans [12]): 16 µg/mL | MIC80 (Candida albicans [13]): 0.25 µg/mL | MIC80 (Candida albicans [14]): 2 µg/mL | MIC80 (Candida albicans [15]): 1 µg/mL | MIC80 (Candida albicans [16]): 0.5 µg/mL | MIC80 (Candida albicans [17]): 1 µg/mL | MIC80 (Candida albicans [18]): 2 µg/mL | MIC80 (Candida albicans [19]): 0.5 µg/mL | MIC80 (Candida albicans [20]): 0.25 µg/mL | MIC80 (Candida albicans [21]): > 64 µg/mL | MIC80 ([Candida] auris [22]): > 64 µg/mL | MIC80 (Candida albicans [23]): > 64 µg/mL | MIC80 (Candida albicans [24]): 2 µg/mL (≈ 6.53 µM) | MIC80 (Cryptococcus neoformans [25]): 8 µg/mL (≈ 26.1 µM) | MIC80 ([Candida] auris [26]): 64 µg/mL | MIC80 ([Candida] auris [27]): 64 µg/mL | MIC80 (Candida albicans [28]): 0.25 µg/mL | Activity (Candida albicans [29]): inactive | Activity (Candida albicans [30]): inactive | Activity (Candida albicans [31]): inactive | Activity (Candida albicans [32]): inactive | Activity (Candida albicans [33]): inactive | Activity (Candida albicans [34]): inactive | Activity (Candida albicans [35]): Active
